Entries after “also recorded” stand apart in the source; their conditions may differ. Activity calls are given as the source filed them.
Experiments:
Exodeoxyribonuclease V = Exodeoxyribonuclease V (Escherichia coli (strain K12), UniProt P04993+P07648+P08394); experiment: E. coli RecBCD inhibitors, dose response, counter-screen for AddAB inhibitor project, absorbance, V66 E. coli, mutant T4 phage (AID 492957); type: functional, cell-based, Escherichia coli str. K-12 substr. MG1655
INS1 = experiment: beta cell apoptosis inhibitors, cytokine rescue, dose response, luminescence, retest (AID 449756); type: functional, cell-based; conditions: Rattus norvegicus;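 note: cell death triggered by IL-1 beta plus TNF-alpha plus IFN-gamma mixture; protective hits raise ATP signal compared with cytokine alone wells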
H9c2 = experiment: cells; type: functional, cell-based; conditions: Rattus norvegicus, H9c2, Myocardium
[1] = target: Heat shock protein HSP 90-alpha (Homo sapiens, UniProt P07900); type: functional, organism-based
[2] = human group III sPLA2 inhibitors, dose response, biochemical, QFRET, IC50 (AID 743457);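 note: green fluorescence rise as the enzyme cleaves BODIPY PC-A2 in liposomes; potency for inhibition of the enzyme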
[3] = Counterscreen for AddAB inhibitors: absorbance-based bacterial cell-based high throughput dose response assay for inhibitors of bacterial viability. [Related pubchem assays (depositor defined):AID435030, AID449728, AID449731, AID488942, AID488955, AID488956]; type: functional
[4] = growth induction of Burl-1 ts yeast mutant, dose response, counter-screen for SUMOylation pathway inhibitor project, whole organism, S. cerevisiae, luminescence (AID 463199); type: functional
Cytochrome P450 2C9 = Cytochrome P450 2C9 (Homo sapiens, UniProt P11712)
Cytochrome P450 3A4 [5] = target: T1, Cytochrome P450 3A4 (Homo sapiens, UniProt P08684);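 note: CYP3A4 tested as one member of a cytochrome P450 panel screen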
Cytochrome P450 3A4 [6] = target: T1, Cytochrome P450 3A4; remark: listed apart in the source
Cytochrome P450 1A2 [7] = target: T2, Cytochrome P450 1A2 (Homo sapiens, UniProt P05177);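 note: PubChem cytochrome P450 panel assay, CYP1A2 panel member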
T2 sequence (P05177 whole entry): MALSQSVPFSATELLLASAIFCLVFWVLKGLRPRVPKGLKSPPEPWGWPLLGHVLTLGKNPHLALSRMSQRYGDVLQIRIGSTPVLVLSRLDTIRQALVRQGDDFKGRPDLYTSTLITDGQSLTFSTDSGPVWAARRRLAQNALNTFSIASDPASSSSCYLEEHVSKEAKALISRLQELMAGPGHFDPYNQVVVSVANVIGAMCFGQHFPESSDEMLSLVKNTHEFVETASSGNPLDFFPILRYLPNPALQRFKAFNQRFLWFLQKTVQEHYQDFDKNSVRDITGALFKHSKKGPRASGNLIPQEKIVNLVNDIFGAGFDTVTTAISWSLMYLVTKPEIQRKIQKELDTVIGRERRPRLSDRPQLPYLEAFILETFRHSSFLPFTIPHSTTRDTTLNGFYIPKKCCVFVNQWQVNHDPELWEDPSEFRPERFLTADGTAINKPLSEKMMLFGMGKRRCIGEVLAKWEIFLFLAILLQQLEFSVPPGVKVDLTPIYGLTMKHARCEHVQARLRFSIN

Cytochrome P450 2D6 [8] = target: T3, Cytochrome P450 2D6 (Homo sapiens, UniProt P10635); experiment: qHTS Assay for Inhibitors and Substrates of Cytochrome P450 2D6. [Related pubchem assays: 410 ]; type: ADME; conditions: read-out: Potency
Cytochrome P450 2D6 [9] = target: T3, Cytochrome P450 2D6
Cytochrome P450 2C19 = Cytochrome P450 2C19 (Homo sapiens, UniProt P33261); experiment: Cytochrome panel assay with activity outcomes. Panel member name: p450-cyp2c19 Compounds with AC50 equal or less than 10 uM are considered active; type: functional
Cytochrome P450 1A2 [10] = target: T2, Cytochrome P450 1A2; remark: listed apart in the source
[11] = target: T4, Heat shock factor protein 1 (Mus musculus, UniProt P38532); experiment: inhibition of MG132-induced HSE-luciferase signal, confirmation, cell-based, NIH3T3, luminescence, dose retest (AID 2382); type: functional;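 note: NIH3T3 fibroblasts with HSF1-driven luciferase reporter stressed by proteasome inhibitor MG132; luminescence from HSF1-driven luciferase expression after 8 hours of MG132 stress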
T4 sequence (P38532 whole entry): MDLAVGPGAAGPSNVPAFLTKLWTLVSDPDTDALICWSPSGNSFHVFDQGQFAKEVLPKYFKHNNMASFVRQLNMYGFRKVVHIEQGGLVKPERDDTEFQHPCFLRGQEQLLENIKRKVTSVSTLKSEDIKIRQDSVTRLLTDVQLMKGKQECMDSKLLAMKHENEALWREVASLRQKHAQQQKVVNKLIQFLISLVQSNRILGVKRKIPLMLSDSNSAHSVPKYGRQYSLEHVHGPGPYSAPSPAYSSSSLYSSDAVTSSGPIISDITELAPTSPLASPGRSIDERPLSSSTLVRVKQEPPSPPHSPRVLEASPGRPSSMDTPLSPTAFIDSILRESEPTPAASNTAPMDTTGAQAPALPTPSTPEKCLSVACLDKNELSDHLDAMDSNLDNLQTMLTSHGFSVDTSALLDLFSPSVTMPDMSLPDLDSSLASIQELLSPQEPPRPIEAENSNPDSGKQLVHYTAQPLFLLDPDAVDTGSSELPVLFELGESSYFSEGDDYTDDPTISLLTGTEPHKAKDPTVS

[12] = target: DNA dC->dU-editing enzyme APOBEC-3G (Homo sapiens, UniProt Q9HC16); experiment: Dose Response confirmation of small molecule APOBEC3G DNA Deaminase Inhibitors via a fluorescence-based single-stranded DNA deaminase assay. [Related pubchem assays (depositor defined):AID493012, AID493028]; type: functional
[13] = target: T5, Apoptotic protease-activating factor 1 (Homo sapiens, UniProt O14727); type: functional
T5 sequence (O14727 whole entry): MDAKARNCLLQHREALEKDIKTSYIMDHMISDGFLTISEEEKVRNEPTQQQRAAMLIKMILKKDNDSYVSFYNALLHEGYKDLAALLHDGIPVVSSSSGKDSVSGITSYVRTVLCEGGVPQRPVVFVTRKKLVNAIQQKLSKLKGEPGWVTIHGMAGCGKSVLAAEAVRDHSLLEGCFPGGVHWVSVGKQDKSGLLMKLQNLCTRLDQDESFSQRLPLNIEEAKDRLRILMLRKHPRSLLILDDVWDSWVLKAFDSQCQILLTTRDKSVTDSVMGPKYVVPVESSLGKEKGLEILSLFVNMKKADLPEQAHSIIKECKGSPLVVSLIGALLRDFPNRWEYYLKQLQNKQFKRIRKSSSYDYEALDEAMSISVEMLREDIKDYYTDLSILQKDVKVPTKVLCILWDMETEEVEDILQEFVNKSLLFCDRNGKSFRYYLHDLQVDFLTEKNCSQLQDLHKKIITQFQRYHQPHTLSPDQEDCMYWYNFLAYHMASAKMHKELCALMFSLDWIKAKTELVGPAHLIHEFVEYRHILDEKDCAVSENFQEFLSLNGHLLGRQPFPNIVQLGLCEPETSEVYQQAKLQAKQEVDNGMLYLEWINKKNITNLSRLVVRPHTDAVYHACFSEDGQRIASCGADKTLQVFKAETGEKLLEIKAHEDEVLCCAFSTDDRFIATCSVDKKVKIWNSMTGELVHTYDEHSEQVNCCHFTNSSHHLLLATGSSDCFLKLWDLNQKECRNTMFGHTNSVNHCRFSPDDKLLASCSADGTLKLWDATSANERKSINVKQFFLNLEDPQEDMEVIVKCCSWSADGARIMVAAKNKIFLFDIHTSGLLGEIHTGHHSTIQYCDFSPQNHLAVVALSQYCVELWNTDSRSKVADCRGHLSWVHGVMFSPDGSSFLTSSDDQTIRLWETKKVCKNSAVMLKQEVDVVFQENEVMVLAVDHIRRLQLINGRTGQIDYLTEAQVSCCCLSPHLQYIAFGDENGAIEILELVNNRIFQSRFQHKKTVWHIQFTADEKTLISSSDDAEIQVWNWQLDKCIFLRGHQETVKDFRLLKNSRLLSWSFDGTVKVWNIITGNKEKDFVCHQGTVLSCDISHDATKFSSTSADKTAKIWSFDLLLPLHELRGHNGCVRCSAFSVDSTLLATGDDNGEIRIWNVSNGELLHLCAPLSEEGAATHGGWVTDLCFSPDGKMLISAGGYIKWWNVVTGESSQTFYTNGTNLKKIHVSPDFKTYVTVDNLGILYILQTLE

[14] = target: T6, Rac GTPase-activating protein 1 (Homo sapiens, UniProt Q9H0H5); experiment: MgcRacGAP GTPase-activating activity inhibitors, confirmation, biochemical, ADP Hunter fluorescence, primary and confirmatory (AID 624330); type: functional
T6 sequence (Q9H0H5 whole entry): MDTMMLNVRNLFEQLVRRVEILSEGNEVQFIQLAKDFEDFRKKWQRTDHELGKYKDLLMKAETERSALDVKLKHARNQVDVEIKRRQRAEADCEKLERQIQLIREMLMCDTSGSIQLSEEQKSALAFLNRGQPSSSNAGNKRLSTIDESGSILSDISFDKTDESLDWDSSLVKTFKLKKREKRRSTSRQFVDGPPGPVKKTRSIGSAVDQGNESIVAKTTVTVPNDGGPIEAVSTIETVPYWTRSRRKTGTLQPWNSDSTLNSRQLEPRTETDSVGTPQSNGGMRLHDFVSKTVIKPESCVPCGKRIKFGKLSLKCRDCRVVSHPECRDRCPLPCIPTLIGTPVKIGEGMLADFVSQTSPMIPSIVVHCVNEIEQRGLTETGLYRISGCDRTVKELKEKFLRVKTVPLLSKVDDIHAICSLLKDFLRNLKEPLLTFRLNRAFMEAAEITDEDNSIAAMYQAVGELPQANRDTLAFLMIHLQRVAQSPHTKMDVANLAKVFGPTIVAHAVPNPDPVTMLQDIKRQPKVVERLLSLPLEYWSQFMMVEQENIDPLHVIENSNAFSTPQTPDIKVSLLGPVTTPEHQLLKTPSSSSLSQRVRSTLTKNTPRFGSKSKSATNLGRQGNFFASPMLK

[15] = target: RNA-editing ligase 1, mitochondrial (Trypanosoma brucei brucei, UniProt P86926); experiment: TbREL1 ligase inhibitors, dose response, biochemical, fluorescence, Trypanosoma brucei (AID 1117295); type: functional
[16] = target: Lysine-specific demethylase 4C (Homo sapiens, UniProt Q9H3R0); experiment: GASC-1 (JMJD2C) histone demethylase inhibitors, dose response, biochemical, DELFIA europium, cherry-picked samples (AID 488835); type: functional
[17] = target: DNA dC->dU-editing enzyme APOBEC-3A (Homo sapiens, UniProt P31941); experiment: APOBEC3A DNA deaminase inhibitors, dose response, biochemical (AID 504722); type: functional
[18] = Luminescent dose response cell-based high throughput screening assay for inhibitors of the Janus kinase 2 mutant JAK2V617F. [Related pubchem assays: 1446 (Primary screen.), 1521 (Confirmation assay.), 1486 (Counter screen.)]; type: functional
[19] = Luminescence Cell-Based Dose Response HTS to Identify Inhibitors of 5'UTR Stem-Loop Driven Prion Protein mRNA Translation in H4 Neuroglioblastoma Cells. [Related pubchem assays: 1827 (Project Summary), 1813 (Primary HTS)]; type: functional
[20] = Luminescence Cell-Based Dose Retest to Confirm Inhibitors of Cancer Stem Cells. [Related pubchem assays (depositor defined):AID2717, AID2721]; type: functional; conditions: Homo sapiens
Cysteine protease ATG4B = target: T7, Cysteine protease ATG4B (Homo sapiens, UniProt Q9Y4P1); type: functional;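 note: Fluorescence-based dose-response confirmation assay measuring inhibition of ATG4B activity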
T7 sequence (Q9Y4P1 whole entry): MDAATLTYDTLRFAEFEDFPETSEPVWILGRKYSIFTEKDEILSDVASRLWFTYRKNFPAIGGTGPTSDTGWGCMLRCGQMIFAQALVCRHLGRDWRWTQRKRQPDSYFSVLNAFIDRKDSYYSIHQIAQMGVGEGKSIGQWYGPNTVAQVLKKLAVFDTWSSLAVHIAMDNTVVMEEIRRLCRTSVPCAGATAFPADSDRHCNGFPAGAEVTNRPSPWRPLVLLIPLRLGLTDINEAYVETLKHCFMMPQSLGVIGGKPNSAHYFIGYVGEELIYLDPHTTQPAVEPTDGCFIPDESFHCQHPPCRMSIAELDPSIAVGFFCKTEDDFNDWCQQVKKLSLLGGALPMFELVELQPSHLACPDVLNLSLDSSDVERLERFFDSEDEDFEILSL

[21] = inhibitors of firefly luciferase expression or activity, dose response, H4 neuroglioma cells, luminescence (AID 1990); type: functional, cell-based
Phospholipase A2 = Phospholipase A2 (Homo sapiens, UniProt P04054); type: functional;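 note: confirmatory dose-response counterscreen on phospholipase A2, testing hits that came from an ultra-high-throughput screen for ATG4B inhibitors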
[22] = inhibitors of SNCA 5'UTR-driven reporter translation, confirmation, H4 neuroglioma cells, luminescence (AID 1988); type: functional, cell-based

T3 sequence (P10635 whole entry): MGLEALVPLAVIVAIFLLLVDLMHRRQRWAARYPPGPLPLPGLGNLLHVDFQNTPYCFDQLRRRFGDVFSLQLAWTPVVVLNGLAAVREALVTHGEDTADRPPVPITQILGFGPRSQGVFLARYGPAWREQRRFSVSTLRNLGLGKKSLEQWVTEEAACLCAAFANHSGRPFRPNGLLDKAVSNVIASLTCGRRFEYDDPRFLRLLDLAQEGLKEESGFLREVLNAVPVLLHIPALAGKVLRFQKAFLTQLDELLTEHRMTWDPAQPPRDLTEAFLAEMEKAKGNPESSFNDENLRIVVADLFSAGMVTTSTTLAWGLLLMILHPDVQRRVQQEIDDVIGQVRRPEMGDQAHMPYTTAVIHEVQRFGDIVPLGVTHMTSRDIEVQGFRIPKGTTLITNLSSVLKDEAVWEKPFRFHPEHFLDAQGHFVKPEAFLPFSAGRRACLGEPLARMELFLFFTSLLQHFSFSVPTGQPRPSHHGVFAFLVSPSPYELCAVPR
Cytochrome P450 2C19, sequence (P33261 whole entry): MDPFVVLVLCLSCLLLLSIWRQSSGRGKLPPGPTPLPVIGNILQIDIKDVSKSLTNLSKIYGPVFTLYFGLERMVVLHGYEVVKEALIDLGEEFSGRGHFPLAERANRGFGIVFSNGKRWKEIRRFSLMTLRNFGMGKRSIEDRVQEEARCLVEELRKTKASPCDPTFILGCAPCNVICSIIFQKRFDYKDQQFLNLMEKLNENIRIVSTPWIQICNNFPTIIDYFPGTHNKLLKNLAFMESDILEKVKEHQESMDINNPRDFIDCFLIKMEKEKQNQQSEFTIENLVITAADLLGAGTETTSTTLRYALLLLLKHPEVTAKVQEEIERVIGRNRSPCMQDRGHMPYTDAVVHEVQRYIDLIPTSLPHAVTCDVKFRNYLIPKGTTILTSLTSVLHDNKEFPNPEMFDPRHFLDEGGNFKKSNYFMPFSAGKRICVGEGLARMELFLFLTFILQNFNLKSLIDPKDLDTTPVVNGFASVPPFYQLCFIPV
Exodeoxyribonuclease V, sequence (P04993 whole entry): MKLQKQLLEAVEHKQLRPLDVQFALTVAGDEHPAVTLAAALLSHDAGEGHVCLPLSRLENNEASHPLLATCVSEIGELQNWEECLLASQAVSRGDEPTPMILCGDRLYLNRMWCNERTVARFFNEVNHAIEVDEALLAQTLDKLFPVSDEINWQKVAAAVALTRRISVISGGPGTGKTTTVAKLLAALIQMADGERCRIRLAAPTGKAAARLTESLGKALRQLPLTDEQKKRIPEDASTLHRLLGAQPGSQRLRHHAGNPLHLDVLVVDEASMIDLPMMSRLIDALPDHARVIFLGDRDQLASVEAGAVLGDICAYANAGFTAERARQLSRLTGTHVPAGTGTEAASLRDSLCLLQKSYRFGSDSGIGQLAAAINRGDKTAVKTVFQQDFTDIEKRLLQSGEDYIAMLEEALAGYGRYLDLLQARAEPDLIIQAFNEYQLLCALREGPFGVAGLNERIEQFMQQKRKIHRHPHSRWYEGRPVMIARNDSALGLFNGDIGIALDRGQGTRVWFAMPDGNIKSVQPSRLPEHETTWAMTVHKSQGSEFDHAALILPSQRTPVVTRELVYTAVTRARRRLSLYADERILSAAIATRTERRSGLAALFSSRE
Exodeoxyribonuclease V, sequence (P07648 whole entry): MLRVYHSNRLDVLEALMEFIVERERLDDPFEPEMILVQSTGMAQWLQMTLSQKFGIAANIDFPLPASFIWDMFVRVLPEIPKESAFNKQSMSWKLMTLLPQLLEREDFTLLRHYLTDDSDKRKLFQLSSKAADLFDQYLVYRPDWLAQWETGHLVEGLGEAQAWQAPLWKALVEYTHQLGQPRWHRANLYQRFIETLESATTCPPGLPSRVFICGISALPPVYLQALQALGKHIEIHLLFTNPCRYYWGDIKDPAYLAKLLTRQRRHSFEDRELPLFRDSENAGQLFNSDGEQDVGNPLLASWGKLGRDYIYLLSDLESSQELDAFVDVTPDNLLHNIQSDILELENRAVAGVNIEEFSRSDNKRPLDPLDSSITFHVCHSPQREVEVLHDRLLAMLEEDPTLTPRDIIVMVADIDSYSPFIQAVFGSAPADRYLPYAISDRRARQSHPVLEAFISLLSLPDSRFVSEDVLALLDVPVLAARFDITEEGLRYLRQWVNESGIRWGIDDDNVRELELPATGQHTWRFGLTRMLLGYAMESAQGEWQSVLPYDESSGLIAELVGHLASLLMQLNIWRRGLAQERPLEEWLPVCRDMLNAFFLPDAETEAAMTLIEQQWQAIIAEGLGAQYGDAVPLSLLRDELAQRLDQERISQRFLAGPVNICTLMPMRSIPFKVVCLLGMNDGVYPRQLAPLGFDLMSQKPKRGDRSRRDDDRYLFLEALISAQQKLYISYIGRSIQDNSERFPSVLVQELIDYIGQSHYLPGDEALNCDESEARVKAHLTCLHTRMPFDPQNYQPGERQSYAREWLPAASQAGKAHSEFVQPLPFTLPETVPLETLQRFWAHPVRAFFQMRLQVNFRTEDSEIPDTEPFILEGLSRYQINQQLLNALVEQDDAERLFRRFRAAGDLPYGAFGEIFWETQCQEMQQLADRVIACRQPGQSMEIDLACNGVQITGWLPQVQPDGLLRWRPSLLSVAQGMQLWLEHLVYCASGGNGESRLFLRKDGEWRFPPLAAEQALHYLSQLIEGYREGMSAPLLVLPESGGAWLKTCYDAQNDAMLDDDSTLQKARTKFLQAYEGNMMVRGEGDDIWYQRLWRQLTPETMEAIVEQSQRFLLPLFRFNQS
Exodeoxyribonuclease V, sequence (P08394 whole entry): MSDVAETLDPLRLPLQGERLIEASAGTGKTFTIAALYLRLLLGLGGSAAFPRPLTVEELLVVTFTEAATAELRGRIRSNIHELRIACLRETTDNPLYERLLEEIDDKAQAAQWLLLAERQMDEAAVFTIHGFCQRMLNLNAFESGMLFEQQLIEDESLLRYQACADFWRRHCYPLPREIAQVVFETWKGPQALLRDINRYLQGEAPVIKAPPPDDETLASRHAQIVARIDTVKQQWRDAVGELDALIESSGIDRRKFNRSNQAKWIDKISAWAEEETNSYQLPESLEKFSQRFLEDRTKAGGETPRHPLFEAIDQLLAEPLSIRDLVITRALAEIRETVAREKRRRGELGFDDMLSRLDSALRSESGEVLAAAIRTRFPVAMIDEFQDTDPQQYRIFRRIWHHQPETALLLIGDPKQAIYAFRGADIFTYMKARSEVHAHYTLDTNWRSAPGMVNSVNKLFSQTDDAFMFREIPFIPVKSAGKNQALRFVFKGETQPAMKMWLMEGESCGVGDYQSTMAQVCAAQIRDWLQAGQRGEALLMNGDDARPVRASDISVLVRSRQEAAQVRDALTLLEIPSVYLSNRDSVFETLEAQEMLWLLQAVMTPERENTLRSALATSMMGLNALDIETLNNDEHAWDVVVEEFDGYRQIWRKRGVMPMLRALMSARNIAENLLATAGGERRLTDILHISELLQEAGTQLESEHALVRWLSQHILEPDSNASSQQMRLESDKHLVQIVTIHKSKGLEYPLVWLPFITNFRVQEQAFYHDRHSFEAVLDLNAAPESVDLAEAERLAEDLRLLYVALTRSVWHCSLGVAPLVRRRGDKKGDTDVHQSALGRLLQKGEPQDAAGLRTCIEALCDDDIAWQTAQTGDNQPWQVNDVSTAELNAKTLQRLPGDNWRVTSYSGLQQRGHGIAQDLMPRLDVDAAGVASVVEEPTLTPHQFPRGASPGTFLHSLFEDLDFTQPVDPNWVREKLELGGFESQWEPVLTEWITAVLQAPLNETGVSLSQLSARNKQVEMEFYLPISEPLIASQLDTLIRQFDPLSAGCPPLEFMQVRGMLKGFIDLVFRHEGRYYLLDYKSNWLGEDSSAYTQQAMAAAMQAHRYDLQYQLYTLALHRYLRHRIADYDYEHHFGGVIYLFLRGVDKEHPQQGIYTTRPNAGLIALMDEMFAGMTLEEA
T1 sequence (P08684 whole entry): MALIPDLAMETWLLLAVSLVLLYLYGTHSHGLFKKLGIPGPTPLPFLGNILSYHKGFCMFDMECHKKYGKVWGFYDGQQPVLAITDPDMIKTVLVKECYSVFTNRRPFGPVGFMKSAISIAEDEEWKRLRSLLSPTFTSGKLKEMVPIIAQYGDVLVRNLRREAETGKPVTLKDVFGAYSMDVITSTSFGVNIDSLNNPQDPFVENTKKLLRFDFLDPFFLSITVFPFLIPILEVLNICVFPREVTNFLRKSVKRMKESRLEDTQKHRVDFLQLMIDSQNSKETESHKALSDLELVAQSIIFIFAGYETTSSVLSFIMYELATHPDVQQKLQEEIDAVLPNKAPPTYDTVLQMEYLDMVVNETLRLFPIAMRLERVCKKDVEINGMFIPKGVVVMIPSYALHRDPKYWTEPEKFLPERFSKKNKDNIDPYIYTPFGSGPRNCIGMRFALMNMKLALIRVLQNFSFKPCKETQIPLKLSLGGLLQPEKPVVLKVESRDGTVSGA
Cytochrome P450 2C9, sequence (P11712 whole entry): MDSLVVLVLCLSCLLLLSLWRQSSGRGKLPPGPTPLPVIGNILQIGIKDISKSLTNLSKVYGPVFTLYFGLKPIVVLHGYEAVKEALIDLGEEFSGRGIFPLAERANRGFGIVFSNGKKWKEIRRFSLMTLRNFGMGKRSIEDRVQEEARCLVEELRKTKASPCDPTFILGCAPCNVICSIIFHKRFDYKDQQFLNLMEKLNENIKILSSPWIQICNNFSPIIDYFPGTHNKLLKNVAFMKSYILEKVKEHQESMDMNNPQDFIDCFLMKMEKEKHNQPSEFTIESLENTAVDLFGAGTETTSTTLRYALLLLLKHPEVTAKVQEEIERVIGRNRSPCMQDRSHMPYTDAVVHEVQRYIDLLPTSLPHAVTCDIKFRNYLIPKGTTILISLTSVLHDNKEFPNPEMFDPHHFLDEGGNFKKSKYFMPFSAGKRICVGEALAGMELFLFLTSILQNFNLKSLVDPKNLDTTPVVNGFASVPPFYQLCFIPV
Phospholipase A2, sequence (P04054 whole entry): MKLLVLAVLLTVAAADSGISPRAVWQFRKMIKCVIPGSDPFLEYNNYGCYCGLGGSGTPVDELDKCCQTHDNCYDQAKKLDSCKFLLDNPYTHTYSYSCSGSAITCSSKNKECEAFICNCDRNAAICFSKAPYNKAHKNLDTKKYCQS

## Cc1onc(-c2ccccc2)c1C(=O)NC(=S)NNC(=O)c1ccccc1O
Exodeoxyribonuclease V
  IC50: > 119 µM (inactive)
INS1
  AC50: 7.21 µM (active)
H9c2
  IC50: > 79 µM (inactive)
[1]
  AC50: 2.92 µM (active)
[2]
  IC50: > 122 µM (inactive)
[3]
  IC50: > 119 µM (inactive)

## CCNCCNC(=O)c1c(O)nc2c(c1O)CCCC2
[4]
  AC50: 73.1 µM (active)

## N[C@H](CCC(=O)O)C(=O)O [D-GLUTAMATE]
Cytochrome P450 2C9
  AC50: inactive
Cytochrome P450 3A4 [5]
  AC50: inactive
Cytochrome P450 3A4 [6]
  AC50: 25.1 µM (inconclusive)
Cytochrome P450 1A2 [7]
  AC50: 31.6 µM (inconclusive)
Cytochrome P450 2D6 [8]
  AC50: 10 µM (not active)
Cytochrome P450 2D6 [9]
  AC50: inactive; also recorded: inconclusive
Cytochrome P450 2C19
  AC50: inactive
Cytochrome P450 1A2 [10]
  AC50: inactive

## O=C(c1ccc([N+](=O)[O-])cc1)N1CCN(c2ncc(Br)cn2)CC1
[11]
  EC50: > 195 µM (not active)
[4]
  AC50: 72.3 µM (active)

## COc1cc2nc(N3CCN(C(=O)[C@@H]4COc5ccccc5O4)CC3)nc(N)c2cc1OC.CS(=O)(=O)O
Cytochrome P450 2C19; read-out: AC50
  AC50: 0.501 µM (inconclusive)
Cytochrome P450 1A2 [10]
  AC50: inactive

## Cc1nnc(N=c2ssnc2Cl)o1
[12]
  IC50: 4.6 µM (active)
INS1
  AC50: 3.77 µM (active)
[13]
  IC50: 16 µM (active)
[14]
  IC50: 69.6 µM (active)
[15]
  IC50: 79 µM (inactive)
[16]
  AC50: 6.06 µM (active)
[17]
  IC50: > 100 µM (inactive)
[1]
  AC50: 3.13 µM (active)

## COc1cccc(/C=N/NC(=O)c2[nH]c(C)c(C(=O)N/N=C/c3cccc(OC)c3O)c2C)c1O
Exodeoxyribonuclease V
  IC50: > 119 µM (inactive)
[18]
  IC50: 2.8 µM (active)
[19]
  EC50: 18.9 µM (active)
[20]
  AC50: 2.44 µM (active)
Cysteine protease ATG4B
  IC50: 7.03 µM (active)
[21]
  EC50: 9.94 µM (active)
Phospholipase A2
  IC50: 9.88 µM (active)
[22]
  EC50: 15.3 µM (active)
[3]
  IC50: > 119 µM (inactive)

Source: ChEMBL document CHEMBL1201862, “PubChem BioAssay data set” (2004)
